Assay: solvent given as SMILES

CC(C)CO
Conditions	solvation free energy, 298 K [kcal/mol]
in Brc1ccccc1	-4.23
in C1CCCCC1	-3.98
in CC(=O)N(C)C	-6.04
in CC(C)(C)O	-5.95
in CC(C)CC(C)(C)C	-3.55
in CC(C)CCCC(C)CCCC(C)CCCCC(C)CCCC(C)CCCC(C)C	-3.1
in CCC(C)=O	-5.43
in CCC(C)O	-5.95
in CCCCCC	-3.58
in CCCCCCC	-3.51
in CCCCCCCC	-3.33
in CCCCCCCCCCCCCCCC	-3.25
in CCCCCCCCCCO	-5.43
in CCCCCCCCO	-5.36
in CCCCCO	-5.73
in CCCCCl	-4.41
in CCCCN(C=O)CCCC	-5.76
in CCCCO	-5.74
in CCCCOC(C)=O	-4.84
in CCCOCCC	-4.78
in CCOC(=O)c1ccccc1C(=O)OCC	-4.88
in CCOP(=O)(OCC)OCC	-5.79
in CN1CCCC1=O	-6.03
in CN1CCN(C)C1=O	-5.9
in CNC(C)=O	-5.91
in CO	-6.18
in Cc1ccc(C)cc1	-4.25
in Cc1cccc(C)c1	-4.1
in Clc1ccccc1	-4.26
in O	-4.52
in O=CN1CCOCC1	-5.3
in OCCOCCO	-5.51
in [2H]O[2H]	-4.59

CCCCCCC(C)=O
Conditions	solvation free energy, 298 K [kcal/mol]
in C1COCCO1	-6.83
in CCCCCCC	-5.68
in CN(C)C=O	-6.23
in ClC(Cl)(Cl)Cl	-6.7
in NC=O	-5.06
in O	-2.92

CC(C)=CCCC1(C)C2CC3C(C2)C31C (configuration not stated)
Conditions	solvation free energy, 298 K [kcal/mol]
in O	0.55

CCCCc1ccccc1
Conditions	solvation free energy, 298 K [kcal/mol]
in C1CCOC1	-7.33
in CC#N	-6.1
in CC(C)O	-5.98
in CCC(C)=O	-6.73
in CCCCCCC	-6.58
in CCCCCCCCCCCCCCCC	-6.44
in CCO	-5.72
in CO	-5.81
in O	-0.37
in O=Cc1ccco1	-5.99
in OCCOCCO	-4.81

CC1=CC2C(=C(C)CCC2C(C)C)CC1 (configuration not stated)
Conditions	solvation free energy, 298 K [kcal/mol]
in O	-0.4

COc1cc(C(C)=O)cc(-c2cc(C(C)=O)cc(OC)c2O)c1O
Conditions	solvation free energy, 298 K [kcal/mol]
in CCC(C)=O	-21.7
in CCCO	-21.1
in Cc1ccccc1	-20.8
in ClC=CCl	-22
in O	-19.2

CCOP(=S)(OCC)SCSP(=S)(OCC)OCC
Conditions	solvation free energy, 298 K [kcal/mol]
in O	-6.1

C=CCCCCCCC
Conditions	solvation free energy, 298 K [kcal/mol]
in CCCCCCCCO	-5.21
in O	2.06

ClC(Br)Br
Conditions	solvation free energy, 298 K [kcal/mol]
in CCCCCCCCO	-4.9

OCC1OC(O)C(O)C(O)C1O (configuration not stated)
Conditions	solvation free energy, 298 K [kcal/mol]
in O	-25.5

CCC(C)(C)O
Conditions	solvation free energy, 298 K [kcal/mol]
in CC(=O)CC(C)=O	-5.07
in CCCCCCC	-3.85
in CCCCCCCC	-3.99
in CCCCCCCCCC	-3.99
in O	-4.43

CCCCCCCCCCCCCCCCCCO
Conditions	solvation free energy, 298 K [kcal/mol]
in CC(C)O	-14.9
in CCC(C)=O	-13.8
in CCCCCCCCC=CCCCCCCCC(=O)OCC(COC(=O)CCCCCCCC=CCCCCCCCC)OC(=O)CCCCCCCC=CCCCCCCCC	-12.4
in CCCCCCCCCCO	-14.9
in CCCCCCCCO	-14.9
in CCCCCCO	-14.9
in CCCCOCCCC	-14.5
in CCOCC	-15
in O	-2.43

C=C(C)C1CCC2(C)CCC=C(C)C2C1 (configuration not stated)
Conditions	solvation free energy, 298 K [kcal/mol]
in O	-0.16

CN(C)C(=O)Nc1ccc(Cl)cc1
Conditions	solvation free energy, 298 K [kcal/mol]
in C1CCOC1	-13.7
in CC(C)CC(C)(C)C	-9.58
in CC(C)CCO	-13.1
in CC(C)CO	-13.1
in CC(C)O	-13.1
in CCC(C)O	-13.1
in CCCC(C)O	-13
in CCCCC(CC)CO	-12.8
in CCCCCC	-9.81
in CCCCCCC	-9.75
in CCCCCCCC	-9.79
in CCCCCCCCCC	-9.8
in CCCCCCCCCCO	-12.8
in CCCCCCCO	-13
in CCCCCCO	-13.2
in CCCCCO	-13.2
in CCCCO	-13.3
in CCCCOC(C)=O	-12.8
in CCCCOCCCC	-11.6
in CCCO	-13.3
in CCO	-13.4
in CCOC(C)=O	-13.1
in CO	-13.7
in COC(C)=O	-13.1
in ClC(Cl)(Cl)Cl	-11.1
in ClC(Cl)Cl	-13.3
in ClCCCl	-13
in ClCCl	-13.3
in O	-10.4

OCCO
Conditions	solvation free energy, 298 K [kcal/mol]
in O	-9.3

CCOCOCC
Conditions	solvation free energy, 298 K [kcal/mol]
in CCCCCl	-4.67
in ClC(Cl)(Cl)Cl	-4.97
in ClCCl	-5.47
in O	-2.96

CCCCCCCC(=O)c1c(C)[nH]n(-c2ccccc2)c1=O
Conditions	solvation free energy, 298 K [kcal/mol]
in O	-8.85

CCCCN(CCCC)N=O
Conditions	solvation free energy, 298 K [kcal/mol]
in CC(C)CC(C)(C)C	-7.84
in O	-4.91

Nc1ccc([N+](=O)[O-])cc1Cl
Conditions	solvation free energy, 298 K [kcal/mol]
in O	-8.74

CCCC=O
Conditions	solvation free energy, 298 K [kcal/mol]
in C1CCOC1	-4.42
in C=CCCCC	-3.65
in C=CCCCCCCCCCCCCCC	-3.15
in CC(C)CC(C)(C)C	-3.45
in CC(C)CCCC(C)CCCC(C)CCCCC(C)CCCC(C)CCCC(C)C	-3.09
in CCCCCCCC	-3.23
in CCCCCCCCCCCCCCCC	-3.18
in CCCCCCCCO	-4.64
in CCCCCO	-3.7
in CCOC(C)=O	-4.33
in CN1CCCC1=O	-4.16
in CO	-4.34
in NC=O	-3.52
in O	-3.12
in O=CN1CCOCC1	-3.94
in [2H]O[2H]	-3.11

Nc1cccc([N+](=O)[O-])c1
Conditions	solvation free energy, 298 K [kcal/mol]
in CC(C)CC(C)(C)C	-8.01
in O	-8.84

COc1cc(NS(=O)(=O)c2ccc(N)cc2)nc(OC)n1
Conditions	solvation free energy, 298 K [kcal/mol]
in O	-18.9

C=C(C)C1CC=C(C)C(O)C1 (configuration not stated)
Conditions	solvation free energy, 298 K [kcal/mol]
in O	-4.44

CNC
Conditions	solvation free energy, 298 K [kcal/mol]
in CCCCCC	-2.48
in CCCCCCCCCC	-2.31
in CCCCCCCCO	-2.73
in CCCO	-2.99
in CCO	-3.27
in CN(C)C=O	-2.88
in CO	-3.51
in ClC(Cl)(Cl)Cl	-2.88
in N#Cc1ccccc1	-2.8
in O	-4.3

C=C(C)C1CCC2(CO)CCC3(C)C(CCC4C5(C)CCC(O)C(C)(C)C5CCC43C)C12 (configuration not stated)
Conditions	solvation free energy, 298 K [kcal/mol]
in CC(C)=O	-27.9
in CCCCCCO	-27.3
in CCCCCO	-27.6
in CCCCO	-28
in CCCO	-27.8
in CCO	-27.7
in CCOC(C)=O	-27.8
in CO	-27.3
in COC(C)=O	-27.4
in ClC(Cl)Cl	-28.4
in ClCCl	-27.7
in O	-14.2

CCCCCO
Conditions	solvation free energy, 298 K [kcal/mol]
in Brc1ccccc1	-5.42
in C1CCOC1	-6.61
in CC#N	-5.85
in CC(C)(C)O	-6.96
in CC(C)CC(C)(C)C	-4.37
in CC(C)CO	-6.85
in CC(C)O	-6.83
in CCCCCC	-4.62
in CCCCCCC	-4.48
in CCCCCCCC	-4.27
in CCCCCCCCCC	-4.16
in CCCCCCCCCCCCCCCC	-4.08
in CCCCCCCCCCO	-6.39
in CCCCCCCCO	-6.37
in CCCCCCO	-6.68
in CCCCO	-6.77
in CCCO	-6.78
in CO	-6.84
in Cc1cccc(C)c1	-5.21
in Cc1ccccc1C	-5.21
in Clc1ccccc1	-5.48
in NC=O	-5.65
in O	-4.56
in [2H]O[2H]	-4.61

C=C(C)C1CC=C(C=O)CC1 (configuration not stated)
Conditions	solvation free energy, 298 K [kcal/mol]
in O	-4.09

Source: the CombiSolv-Exp solvation set (Vermeire and Green 2021)
